According to patent publication US4198506A, “2-Carboxyalkyl-2,3-dihydro-6-mercapto-s-triazolo[4,3-b]-pyridazin-3-ones” (Bristol-Myers Company, priority 1979, dated 1980):
Like-named read-outs stand apart in the source and are kept apart here.

How the values were obtained:
[1] = test system: D. pneumoniae; test: In vitro activity (geometric mean MIC, serial dilution); format: cell-based; conditions: Streptococcus pneumoniae; 9 strains; Mueller-Hinton agar, inoculum 10^4 dilution; MIC cutoff 200 mcg./ml.
[2] = test system: S. pyogenes; test: as above; format: cell-based; conditions: Streptococcus pyogenes; 10 strains; Mueller-Hinton agar, inoculum 10^4 dilution; MIC cutoff 200 mcg./ml.
[3] = test system: Proteus (indole-); test: as above; format: cell-based; conditions: read-out: Geometric Mean MIC
[4] = test system: St. faecalis; test: In vitro antibacterial activity (Steers' agar dilution MIC); format: cell-based; conditions: Enterococcus faecalis, read-out: MIC
[5] = test system: Klebsiella sp.; test: In vitro activity (geometric mean MIC, serial dilution); format: cell-based; conditions: 12 strains, Mueller-Hinton agar, inoculum 10^4 dilution, MIC cutoff 200 mcg./ml., read-out: Geometric Mean MIC
[6] = test system: Enterobacter (sensitive); test: as above; format: cell-based; conditions: read-out: Geometric Mean MIC
[7] = test system: B. anthracis; test: microbe, parasite or virus in culture; format: cell-based; conditions: Bacillus anthracis
[8] = test system: Sal. enteritidis; test: In vitro antibacterial activity (Steers' agar dilution MIC); format: cell-based; conditions: Salmonella enterica
[9] = test system: S. aureus (sensitive); test: In vitro activity (geometric mean MIC, serial dilution); format: cell-based; conditions: Staphylococcus aureus, read-out: Geometric Mean MIC
[10] = test system: Serr. marcescens; test: In vitro antibacterial activity (Steers' agar dilution MIC); format: cell-based; conditions: Serratia marcescens
[11] = test system: E. coli (Penicillinase +); test: In vitro activity (geometric mean MIC, serial dilution); format: cell-based; conditions: Escherichia coli; 7 strains; Mueller-Hinton agar, inoculum 10^4 dilution; MIC cutoff 200 mcg./ml.; read-out: Geometric Mean MIC
[12] = test system: Ps. aeruginosa; test: In vitro antibacterial activity (Steers' agar dilution MIC); format: cell-based
[13] = test system: Miscellaneous (Salmonella, Shigella, Citrobacter); test: microbe, parasite or virus in culture; conditions: read-out: Geometric Mean MIC
[14] = test system: Shig. dysenteriae; test: In vitro antibacterial activity (Steers' agar dilution MIC); format: cell-based; conditions: Shigella dysenteriae
[15] = test system: S. aureus; test: as above; format: cell-based; conditions: Staphylococcus aureus
Description: (§1) In vitro Antibacterial Activity of BB-S493 Compared with
(§2) BB-S479 and Cefamandole (Determined by Steers' Agar Dilu-
(§3) tion Method on Mueller-Hinton Agar Plate)
(§4) In vitro antibacterial activity of BB-S 525 compared with
(§5) BB-S 479 and cefamandole (determined by Steers' agar dilution
(§6) method on Mueller-Hinton agar plate)

[16] = test system: Shig. flexneri; test: as above; format: cell-based
Description: as §1, §2, §3, §4, §5, §6

[17] = test system: Sal. typhosa; test: as above; format: cell-based
Description: as §1, §2, §3, §4, §5, §6

[18] = test system: Shig. sonnei; test: as above; format: cell-based; conditions: Shigella sonnei
Description: as §1, §2, §3, §4, §5, §6

[19] = test system: Kl. pneumoniae; test: as above; format: cell-based; conditions: Klebsiella pneumoniae
Description: as §1, §2, §3, §4, §5, §6

[20] = test system: E. coli; test: as above; format: cell-based; conditions: Escherichia coli
Description: as §1, §2, §3, §4, §5, §6

[21] = test system: Proteus (indole +, cephalosporinase +); test: In vitro activity (geometric mean MIC, serial dilution); format: cell-based; conditions: 5 strains; Mueller-Hinton agar, inoculum 10^4 dilution; MIC cutoff 200 mcg./ml.; read-out: Geometric Mean MIC
[22] = test system: Pr. vulgaris; test: In vitro antibacterial activity (Steers' agar dilution MIC); format: cell-based; conditions: Proteus vulgaris, read-out: MIC
[23] = test system: Providencia sp.; test: In vitro activity (geometric mean MIC, serial dilution); format: cell-based; conditions: 5 strains, Mueller-Hinton agar, inoculum 10^4 dilution, MIC cutoff 200 mcg./ml., read-out: Geometric Mean MIC
[24] = test system: E. coli (sensitive); test: as above; format: cell-based; conditions: Escherichia coli; 13 strains; Mueller-Hinton agar, inoculum 10^4 dilution; MIC cutoff 200 mcg./ml.; read-out: Geometric Mean MIC
[25] = test system: Proteus (indole +); test: as above; format: cell-based; conditions: 14 strains; Mueller-Hinton agar, inoculum 10^4 dilution; MIC cutoff 200 mcg./ml.; read-out: Geometric Mean MIC
[26] = test system: S. marcescens; test: as above; format: cell-based; conditions: Serratia marcescens; 16 strains; Mueller-Hinton agar, inoculum 10^4 dilution; MIC cutoff 200 mcg./ml.; read-out: Geometric Mean MIC

Measured: MIC

CNCc1ccccc1CC(=O)N[C@@H]1C(=O)N2C(C(=O)O)=C(CSc3ccc4nn(CC(=O)O)c(=O)n4n3)CS[C@H]12 [BB-S479, 7-[o-(Methylaminomethyl)phenylacetamido]-3-(2-carboxymethyl-2,3-dihydro-s-triazolo[4,3-b]pyridazin-3-on-6-ylthiomethyl)-3-cephem-4-carboxylic Acid]
0.2 µg/mL: [7]; table 4 (BB-S 525), B. anthracis | [15]; table 4 (BB-S 525), S. aureus (strain not given) | [19]; table 4 (BB-S 525), Kl. pneumoniae, 3rd line | [19]; table 4 (BB-S 525), Kl. pnuemoniae, 4th line | [20]; table 2 (BB-S493), E. coli BX-1373, read-out: MIC | [20]; table 4 (BB-S 525), E. coli BX-1373, read-out: MIC | [20]; table 4 (BB-S 525), E. coli Juhl, read-out: MIC | [22]; table 4 (BB-S 525), Pr. vulgaris, 1st line | [24] | [25]
0.5 µg/mL: [3] | [6]
> 100 µg/mL: [4]; table 4 (BB-S 525), St. faecalis | [12]; Pseudomonas aeruginosa, table 2 (BB-S493), Ps. aeruginosa A9843, read-out: MIC | [12]; table 2 (BB-S493), Ps. aerugionsa A9930 | [12]; table 4 (BB-S 525), Ps. aeruginosa, 1st line | [12]; table 4 (BB-S 525), Ps. aeruginosa, 2nd line
2.6 µg/mL: [11]
35 µg/mL: [26]
3.1 µg/mL: [20]; ATCC8739, table 4 (BB-S 525), E. coli ATCC 8739 | [20]; table 2 (BB-S493), E. coli A15147, read-out: MIC | [20]; table 4 (BB-S 525), E. coli, strain not given, 3rd line, read-out: MIC
0.1 µg/mL: [8]; table 4 (BB-S 525), Sal. enteritidis | [14]; table 4 (BB-S 525), Shig. dysenteriae | [15]; table 2 (BB-S493), S. aureus A9497 | [17]; table 4 (BB-S 525), Sal. typhosa | [18]; table 4 (BB-S 525), Shig. sonnei | [19]; table 2 (BB-S493), Kl. pneumoniae A9867 | [19]; table 2 (BB-S493), Kl. pneumoniae A9977 | [19]; table 2 (BB-S493), Kl. pneumoniae A15130 | [19]; table 4 (BB-S 525), Kl. pneumoniae, 2nd line | [20]; table 2 (BB-S493), E. coli A15810, read-out: MIC | [20]; table 2 (BB-S493), E. coli Juhl A15119, read-out: MIC | [20]; table 4 (BB-S 525), E. coli NIHJ, read-out: MIC | [20]; table 4 (BB-S 525), E. coli, strain not given, 1st line, read-out: MIC | [22]; table 2 (BB-S493), Pr. vulgaris A9436
0.8 µg/mL: [15]; table 4 (BB-S 525), S. aureus BX-1633 | [19]; table 4 (BB-S 525), Kl. pneumoniae, 1st line | [22]; table 2 (BB-S493), Pr. vulgaris A9699 | [22]; table 4 (BB-S 525), Pr. vulgaris, 2nd line
100 µg/mL: [4]; table 2 (BB-S493), St. faecalis A9536
0.05 µg/mL: [8]; table 2 (BB-S493), Sal. enteritidis A9531 | [17]; table 2 (BB-S493), Sal. typhosa A9498 | [20]; ATCC8739, table 2 (BB-S493), E. coli ATCC 8739, read-out: MIC | [20]; table 2 (BB-S493), E. coli A9660, read-out: MIC | [20]; table 2 (BB-S493), E. coli NIHJ, read-out: MIC | [20]; table 4 (BB-S 525), E. coli, strain not given, 2nd line, read-out: MIC
0.4 µg/mL: [13] | [15]; table 2 (BB-S493), S. aureus BX-1633 A9606 | [15]; table 2 (BB-S493), S. aureus Smith A9537 | [15]; table 4 (BB-S 525), S. aureus Smith | [19]; table 2 (BB-S493), Kl. pneumoniae A9678
4.2 µg/mL: [23]
0.3 µg/mL: [9]
25 µg/mL: [10]; table 2 (BB-S493), Serr. marcescens A20019, read-out: MIC
0.025 µg/mL: [7]; table 2 (BB-S493), B. anthracis A9504 | [14]; table 2 (BB-S493), Shig dysenteriae | [18]; table 2 (BB-S493), Shig. sonnei A9516
0.6 µg/mL: [5]
4.8 µg/mL: [21]
12.5 µg/mL: [10]; table 4 (BB-S 525), Serr. marcescens | [16]; Shigella flexneri, table 2 (BB-S493), Shig. flexneri A9684, read-out: MIC | [16]; table 4 (BB-S 525), Shig. flexneri
0.04 µg/mL: [1] | [2]
